What all share (type): biochemical, rat (Male Sprague-Dawley)
For one assay, the system named is dopamine uptake. As to the kind of experiment: DA (dopamine) uptake inhibition, synaptosomal preparation (striatum). The note with it: rat striatum synaptosomes, 0.1 μM tritiated amine, 37° C., 4 minutes. As to the method: (§1) For the purpose of identifying compounds as biogenic amine uptake inhibitors capable of interacting with the uptake carrier, ligand-carrier binding assays were carried out as an initial sceen.
(§2) Male Sprague-Dawley derived rats, weighing about 180-250 g each (purchased from Sasco Animal Laboratories, Oregon, Wis.) were sacrificed by decapitation. The brains were immediately removed, placed on a chilled glass plate and dissected according to a modification of the method of Glowinski and Iversen (J. Glowinski and L. L. Iversen, J Neurochem, 1966, 13: 655-669). First, the rhombencephalon was separated by a transverse section and discarded. The rest of the brain was divided into two portions by making another transverse section at the level of the optic chiasma. The hypothalamus, which was used for norepinephrine uptake studies, was removed from the posterior part by using the anterior commissure as the horizontal reference point and a line between the posterior hypothalamus and mammillary bodies as the caudal limit. The striatum, which was used for dopamine uptake studies, was also dissected from the posterior portion using the external wall of the lateral ventricle as the internal limit and the corpus collosum as the external limit. The frontal parts of the striatum were removed from the anterior portion of the cerebrum and combined with the striatal tissue from the posterior segment. The cortex, which was used for serotonin uptake studies, was composed of the rest of the anterior portion of the cerebrum and the cortical surfaces removed from the posterior segment. The hypothalamus and the striatum each weighed about 100 mg or slightly less, whereas the cortex weighed up to 800 mg. The tissues were placed in a cold Potter-Elvehjem glass homogenizer with 5 (cortex) or 10 (hypothalamus) or 20 (striatum) volumes of ice-cold 0.32M sucrose, pH 7, and homogenized by hand. The homogenate was centrifuged (on a Multifuge®, American Scientific Products) at 2500 rpm for 10 minutes in a refrigerated room (~4° C.). The supernatant fraction containing the synaptosomes was decanted, mixed thoroughly and kept on crushed ice for use in the uptake studies.
(§3) Uptake studies were conducted according to the method of Snyder and Coyle (S. H. Snyder and J. T. Coyle, J Pharmacol Exp Ther, 1969, 165: 78-86) with minor modifications. Usually a 0.1 mL aliquot of the synaptosomal preparation was incubated in a mixture of 0.75 mL of modified Krebs-Ringerbuffer, 0.05 mL of the drug being tested, and 0.1 mL of a 1 μM solution of the labeled (tritiated) amine (final concentration 0.1 μM), for a total volume of 1 mL. The modified Krebs-Ringer bicarbonate buffer used in these studies contained 118 mM sodium chloride, 4 mM potassium chloride, 1.3 mM calcium chloride, 1.12 mM potassium dihydrogen phosphate, 1.2 mM magnesium sulfate and 24 mM sodium bicarbonate, with the addition of 5 mM glucose, 0.15 mM disodium EDTA, 12.5 μM nialamide and 1 mM ascorbic acid. Uptake was initiated by the addition of the tritiated amine and the mixture was incubated at 37° C. in a Dubnoff Metabolic Shaking Incubator for 4 minutes. A preincubation period was not included since it had been reported that results were similar with and without preincubation of the synaptosomal preparation (G. Vosmer, et al. Biochem Pharmacol, 1980, 24: 2557-2562). Control incubations without the test drug were conducted at 37° C. to determine total uptake and at 0° C. (in a crushed ice bath) to correct for the diffusion of the tritiated amine into the synaptosomes and/or binding.
(§4) Filtration was used to terminate uptake and collect the synaptosomes (C. A. Csernansky, et al. J Pharmacol Methods, 1985, 13: 187-191). In the filtration technique, the incubation mixture was diluted with ice-cold 0.9% aqueous sodium chloride solution and filtered through GF/B glass microfiber filters (Whatman) under reduced pressure. […]

The subject of the next assay is norepinephrine uptake. As to the kind of experiment: NE (norepinephrine) uptake inhibition, synaptosomal preparation (hypothalamus). The note with it: rat hypothalamus synaptosomes, 0.1 μM tritiated amine, 37° C., 4 minutes. Here is the method: as §1, §2, §3, §4
The subject of a further assay is 5-HT (serotonin) uptake. As to the kind of experiment: 5-HT (serotonin) uptake inhibition, synaptosomal preparation (cortex). The conditions noted are these: 5-hydroxytryptamine, rat cortex synaptosomes, 0.1 μM tritiated amine, 37° C., 4 minutes. Here is the method:
as §1, §2, §3, §4

Counter-ions that a name gives are not always drawn.

As a reminder, the IC50 is the concentration that gives 50% inhibition.

With `COc1ccc2c(c1)CCC1C(Cc3ccccc3)NCC21` (mixture of isomers) [Example 1, cis/trans 2,3,3a,4,5,9b-Hexahydro-7-methoxy-3-phenylmethyl-1H-benz[e]isoindole hydrochloride], the IC50 was 7620 nM in the assay on dopamine uptake (hydrochloride), 524 nM in the assay on norepinephrine uptake (hydrochloride) and 7290 nM with 5-HT (serotonin) uptake (hydrochloride).

Take `COc1ccc2c(c1)CC[C@H]1[C@@H]2CN(C)[C@@H]1Cc1ccccc1` (relative stereo) [Example 8, cis-anti-2,3,3a,4,5,9b-Hexahydro-7-methoxy-2-methyl-3-phenylmethyl-1H-benz[e]isoindole methanesulfonic acid salt]: the half-maximal inhibitory concentration (IC50) in the assay on dopamine uptake was determined as 4700 nM; in the assay on norepinephrine uptake, 120 nM; in the assay with 5-HT (serotonin) uptake it was 2700 nM.

`CC1C[C@H]2c3ccccc3CC[C@H]2CN1Cc1ccccc1` (relative stereo) [Example 71A, cis-2-Methyl-1,2,3,4,4a,5,6,10b-octahydro-3-phenylmethyl-benz[f]isoquinoline]: the IC50 was 450 nM in the assay on dopamine uptake, 9.8 nM in the assay on norepinephrine uptake and 2120 nM in the assay with 5-HT (serotonin) uptake.

As to `CC1C[C@H]2c3ccccc3CC[C@H]2CN1Cc1ccccc1` (relative stereo) [Example 71B, cis-2-Methyl-1,2,3,4,4a,5,6,10b-octahydro-3-phenylmethyl-benz[f]isoquinoline], the IC50 in the assay with dopamine uptake was 633 nM; in the assay with norepinephrine uptake, 11.9 nM; in the assay with 5-HT (serotonin) uptake, 2050 nM.

With `CN1C[C@@H]2c3ccccc3CC[C@@H]2CCC1Cc1ccccc1` (relative stereo) [Example 77, (+)-cis-2-Methyl-1,3,4,5,5a,6,7,11b-octahydro-3-phenylmethyl-2H-naphth[1,2-c]azepine hydrochloride], the IC50 in the assay on dopamine uptake came to 5170 nM; in the assay on norepinephrine uptake it was 190 nM; in the assay on 5-HT (serotonin) uptake it was 4170 nM.

For the molecule `CN1CC2c3ccccc3CCC2C1Cc1cccc(Cl)c1` (single isomer, unassigned) [Example 47, 3-(3-Chlorophenyl)methyl-2,3,3a,4,5,9b-hexahydro-2-methyl-1H-benz[e]isoindole hydrochloride], the results for the IC50 in the assay with dopamine uptake, in the assay on norepinephrine uptake and in the assay on 5-HT (serotonin) uptake were 225 nM, 41 nM and 1260 nM, respectively.

In the case of `CN1CC2c3ccccc3CCC2CCC1Cc1ccccc1` (single isomer, unassigned) [Example 75A, cis-2-Methyl-1,3,4,5,5a,6,7,11b-octahydro-3-phenylmethyl-2H-naphth[1,2-c]azepine hydrochloride], the IC50 with dopamine uptake (hydrochloride) turned out to be 444 nM; in the assay on norepinephrine uptake (hydrochloride) it was 30 nM; in the assay on 5-HT (serotonin) uptake (hydrochloride) it was 227 nM.

Take `CN1CC2c3ccccc3CCC2CCC1Cc1ccccc1` (single isomer, unassigned) [Example 75B, cis-2-Methyl-1,3,4,5,5a,6,7,11b-octahydro-3-phenylmethyl-2H-naphth[1,2-c]azepine hydrochloride]: the IC50 worked out at 2810 nM in the assay with dopamine uptake (hydrochloride), 513 nM with norepinephrine uptake (hydrochloride) and 4130 nM in the assay on 5-HT (serotonin) uptake (hydrochloride).

Consider `COc1cccc2c1CCC1CCC(Cc3ccccc3)N(C)CC21` (single isomer, unassigned) [Example 76A, 8-Methoxy-2-methyl-1,3,4,5,5a,6,7,11b-octahydro-3-phenylmethyl-2H-naphth[1,2-c]azepine hydrochloride], for which the IC50 was 529 nM in the assay on dopamine uptake (hydrochloride), 3.5 nM in the assay with norepinephrine uptake (hydrochloride) and 386 nM with 5-HT (serotonin) uptake (hydrochloride).

As to `COc1cccc2c1CCC1CCC(Cc3ccccc3)N(C)CC21` (single isomer, unassigned) [Example 76B, 8-Methoxy-2-methyl-1,3,4,5,5a,6,7,11b-octahydro-3-phenylmethyl-2H-naphth[1,2-c]azepine hydrochloride], the half-inhibitory concentration (IC50) in the assay with dopamine uptake (hydrochloride) was 2190 nM; in the assay with norepinephrine uptake (hydrochloride), 234 nM; in the assay on 5-HT (serotonin) uptake (hydrochloride) it was 344 nM.

With `CN1CC2c3ccccc3CCC2CCC1Cc1ccccc1` (single isomer, unassigned; (-)) [Example 78, (-) 2-Methyl-1,3,4,5,5a,6,7,11b-octahydro-3-phenylmethyl-2H-naphth[1,2-c]azepine hydrochloride], the IC50 is 189 nM in the assay with dopamine uptake, 9.7 nM in the assay with norepinephrine uptake and under 1000 nM with 5-HT (serotonin) uptake.

With `COc1ccc2c(c1)CCC1C2CN(C)C1Cc1ccccc1` (stereo not drawn) [Example 2, cis-2,3,3a,4,5,9b-Hexahydro-7-methoxy-2-methyl-3-phenylmethyl-1H-benz[e]isoindole methanesulfonic acid salt], the figures for the IC50 in the assay with dopamine uptake, in the assay on norepinephrine uptake and with 5-HT (serotonin) uptake were 182 nM, 58 nM and 4160 nM, respectively.

Consider `CCN1CC2c3ccc(OC)cc3CCC2C1Cc1ccccc1` (stereo not drawn) [Example 3, cis-2-Ethyl-2,3,3a,4,5,9b-hexahydro-7-methoxy-3-phenylmethyl-1H-benz[e]isoindole methanesulfonate salt], for which the IC50 is 225 nM in the assay on dopamine uptake, 18 nM with norepinephrine uptake and 1400 nM in the assay on 5-HT (serotonin) uptake.

For the molecule `COc1ccc2c(c1)CCC1C(Cc3ccccc3)NCC21` (stereo not drawn) [Example 6, trans-2,3,3a,4,5,9b-Hexahydro-7-methoxy-3-phenylmethyl-1H-benz[e]isoindole methanesulfonic acid salt], the IC50 in the assay on dopamine uptake amounted to 10100 nM; in the assay with norepinephrine uptake it was 543 nM; in the assay on 5-HT (serotonin) uptake it was 6510 nM.

Consider `COc1ccc2c(c1)CCC1C2CN(C)C1Cc1ccccc1` (stereo not drawn) [Example 7, trans-2,3,3a,4,5,9b-Hexahydro-7-methoxy-2-methyl-3-phenylmethyl-1H-benz[e]isoindole], for which the IC50 in the assay on dopamine uptake came out at 13400 nM; in the assay on norepinephrine uptake, 322 nM; in the assay on 5-HT (serotonin) uptake, 12200 nM.

On to `CN1CC2c3ccccc3CCC2C1Cc1ccccc1` (stereo not drawn) [Example 9, cis-2,3,3a,4,5,9b-Hexahydro-2-methyl-3-phenylmethyl-1H-benz[e]isoindole methanesulfonic acid salt], for which the IC50 with dopamine uptake came to 540 nM; with norepinephrine uptake it was 48 nM; in the assay with 5-HT (serotonin) uptake, 6600 nM.

With `CN1CC2c3ccccc3CCC2C1Cc1ccccc1` (stereo not drawn) [Example 10, trans-2,3,3a,4,5,9b-Hexahydro-2-methyl-3-phenylmethyl-1H-benz[e]isoindole methanesulfonic acid salt], the results for the IC50 in the assay on dopamine uptake, in the assay on norepinephrine uptake and with 5-HT (serotonin) uptake were 6720 nM, 454 nM and 13500 nM, respectively.

Take `Cc1cccc(CC2NCC3c4ccccc4CCC23)c1` (stereo not drawn) [Example 11, cis-2,3,3a,4,5,9b-Hexahydro-3-(3-methylphenyl)methyl-1H-benz[e]isoindole hydrochloride]: the IC50 is 5140 nM in the assay with dopamine uptake, 238 nM in the assay on norepinephrine uptake and 827 nM in the assay on 5-HT (serotonin) uptake.

As for `Cc1cccc(CC2C3CCc4ccccc4C3CN2C)c1` (stereo not drawn) [Example 12, cis-2,3,3a,4,5,9b-Hexahydro-2-methyl-3-(3-methylphenyl)methyl-1H-benz[e]isoindole hydrochloride], the IC50 in the assay on dopamine uptake worked out at 571 nM; in the assay with norepinephrine uptake it was 37 nM; with 5-HT (serotonin) uptake, 1780 nM.

Regarding `CCN1CC2c3ccccc3CCC2C1Cc1cccc(C)c1` (stereo not drawn) [Example 13, cis-2 -Ethyl-2,3,3a,4,5,9b-hexahydro-3-(3-methylphenyl)methyl-1H-benz[e]isoindole hydrochloride], the IC50 came out at 148 nM with dopamine uptake, 18 nM in the assay with norepinephrine uptake and 507 nM with 5-HT (serotonin) uptake.

In the case of `Fc1cccc(CC2NCC3c4ccccc4CCC23)c1` (stereo not drawn) [Example 15, cis-3-(3-Fluorophenyl)methyl-2,3,3a,4,5,9b-hexahydro-1H-benz[e]isoindole hydrochloride], the IC50 in the assay with dopamine uptake worked out at 7700 nM; in the assay with norepinephrine uptake it was 347 nM; in the assay with 5-HT (serotonin) uptake, 15000 nM.

Source of the values: patent publication US5248677A, “Biogentic amine uptake inhibitors” (priority 1992, dated 1993).
